We go through 16 compounds from patent publication US20230142592A1, “AROMATIC COMPOUND, ORGANIC SEMICONDUCTOR LAYER AND ORGANIC THIN FILM TRANSISTOR” (TOSOH CORPORATION, priority 2020, published 2023).

A short description of data set [1]: Solution for forming organic semiconductor layer: kept in solution state in toluene at 25° C. The format is physicochemical. Particulars: heated to 50° C. to dissolve, allowed to cool at room temperature (25° C.). The protocol:
In the air, in a 10 mL sample tube, 0.87 mg of 2,7-di(2-phenylethyl)dithienobiphenylene (Compound 1) synthesized in Example 1 and 434 mg of toluene (FUJIFILM Wako Pure Chemical Corporation, pure grade) was added and the resultant was heated to 50° C. to dissolve, and then allowed to cool at room temperature (25° C.) to thereby prepare a solution for forming an organic semiconductor layer.
The solution for forming an organic semiconductor layer was kept in a solution state after 10 hours at 25° C. (concentration of Compound 1: 0.20% by weight), confirming that this was a compound suitable for film formation by drop casting and inkjet.

Assay in data set [2]: as above
The following applies: .44 mg in 434 mg of toluene; heated to 50° C., allowed to cool at 25° C. It counts as physicochemical.

For data set [3] the following is noted: generally; cited from earlier work.
Data set [4] can be described thus: Top gate-bottom contact p-type organic thin film transistor, transfer characteristics. The following applies: annealed at 130° C. for 10 min.
Description: The solution for forming an organic semiconductor layer obtained in Example 2 was used to produce a top gate-bottom contact p-type organic thin film transistor.
(§1) Furthermore, this organic thin film transistor was annealed at 130° C. for 10 min and then measured for an electric physical property.
Data set [5] can be described thus: Bottom gate-bottom contact p-type organic thin film transistor, transfer characteristics. The following applies: toluene solution, annealed at 130° C. for 10 min.
Description: as §1

For “2,7-di(2-(4-heptylphenyl)ethyl)dithienobiphenylene [Compound 6]”, the “concentration of solution kept in a solution state after 10 hours at 25° C.” value (shortened to “concentration of solution kept”) in data set [1] turned out to be 0.20 % by weight.

For `CCCCCCCCc1cc2ccc3cc4c(ccc5cc(CCCCCCCC)sc54)cc3c2s1` [2,8-dioctylanthra[1,2-b:5,6-b′]dithiophene, reference compound], in data set [1], the “concentration of solution kept” value is on record as 0.20 % by weight.

As to `COc1ccc(CCc2cc3ccc4cc5c(ccc6ccsc65)cc4c3s2)cc1` [Compound 24, 2-(2-(4-methoxyphenyl)ethyl)anthra[1,2-b:5,6-b′]dithiophene], in data set [1], the “concentration of solution kept” value is 0.10 % by weight.

For the compound `CCCCCCCc1ccc(CCc2cc3ccc4cc5c(ccc6ccsc65)cc4c3s2)cc1` [Compound 18, 2-(2-(4-n-heptylphenyl)ethyl)anthra[1,2-b:5,6-b′]dithiophene], the “concentration of solution kept” value in data set [1] is listed as 0.20 % by weight.

As to `c1ccc(CCc2cc3ccc4cc5c(ccc6ccsc65)cc4c3s2)cc1` [Compound 15, 2-(2-phenylethyl)anthra[1,2-b:5,6-b′]dithiophene], the “concentration of solution kept” value in data set [1] was found to be 0.40 % by weight.

Take `Cc1ccc(CCc2cc3ccc4cc5c(ccc6ccsc65)cc4c3s2)cc1` [Compound 16, 2-(2-(4-methylphenyl)ethyl)anthra[1,2-b:5,6-b′]dithiophene]: the “concentration of solution kept” value in data set [1] worked out at 0.50 % by weight.

Turning to `c1ccc(-c2ccc3c(c2)sc2c4ccc(-c5ccccc5)cc4sc32)cc1` [2,7-diphenyl[1]benzothieno[3,2-b][1]benzothiophene], in data set [2], the “solution state after cooling to room temperature (solubility)” value is “a solid was deposited”. Also, in data set [3], the “solubility in an organic solvent” value was “almost insoluble”.

Consider `c1ccc(CCc2cc3ccc4c(c3s2)-c2ccc3cc(CCc5ccccc5)sc3c2-4)cc1` [Compound 1, 2,7-di(2-phenylethyl)dithienobiphenylene], for which the melting point was 195 °C. Besides, the “concentration of solution kept” value in data set [1] amounted to 0.20 % by weight. Also, the “degradation in performance due to heat treatment” value (from here on “degradation in performance due”) in data set [4] is reported as “almost no degradation in performance”. Also, the “degradation in performance due” value in data set [5] is on record as “almost no degradation in performance”.

Consider `c1ccc(CCc2cc3ccc4c(c3s2)-c2ccc3ccsc3c2-4)cc1` [Compound 13, 2-(2-phenylethyl)dithienobiphenylene], for which the melting point was 161 °C. Moreover, in data set [1], the “concentration of solution kept” value was found to be 1.00 % by weight.

Regarding `c1ccc(CCc2cc3ccc4cc5c(ccc6cc(CCc7ccccc7)sc65)cc4c3s2)cc1` [Compound 10, 2,8-di(2-phenylethyl)anthra[1,2-b:5,6-b′]dithiophene], the “concentration of solution kept” value in data set [1] worked out at 0.20 % by weight.

For `CCCCCCCCc1ccc2c(c1)sc1c3ccc(CCCCCCCC)cc3sc21` [2,7-dioctyl[1]benzothieno[3,2-b][1]benzothiophene, reference compound], the “concentration of solution kept” value in data set [1] is reported as 0.20 % by weight. The “degradation in performance due” value in data set [5] is on record as “transistor operation was not achieved”.

On to `CCCCc1ccc(CCc2cc3ccc4cc5c(ccc6ccsc65)cc4c3s2)cc1` [Compound 17, 2-(2-(4-n-butylphenyl)ethyl)anthra[1,2-b:5,6-b′]dithiophene], for which the “concentration of solution kept” value in data set [1] turned out to be 1.00 % by weight. Further, the “degradation in performance due” value in data set [5] is given as “almost no degradation in performance”.

With “2,7-di(2-(4-propylphenyl)ethyl)dithienobiphenylene [Compound 4]”, the “concentration of solution kept” value in data set [1] is listed as 0.10 % by weight.

Regarding “2,7-di(2-(4-butylphenyl)ethyl)dithienobiphenylene [Compound 5]”, the “concentration of solution kept” value in data set [1] was found to be 0.40 % by weight.

Regarding `Cc1ccc(CCc2cc3ccc4c(c3s2)-c2ccc3ccsc3c2-4)cc1` [Compound 14, 2-(2-(4-methylphenyl)ethyl)dithienobiphenylene], the “concentration of solution kept” value in data set [1] was 1.00 % by weight.

On to `CCCOc1ccc(CCc2cc3ccc4cc5c(ccc6ccsc65)cc4c3s2)cc1` [Compound 23, 2-(2-(4-propoxyphenyl)ethyl)anthra[1,2-b:5,6-b′]dithiophene], for which the “concentration of solution kept” value in data set [1] was found to be 1.00 % by weight.
